Measured values: patent US6942870B2, “Compositions and methods using direct MMP inhibitors for inhibiting photoaging of skin” (The Regents of the University of Michigan, priority 1997, dated 2005)
Entries after “also recorded” stand apart in the source; their conditions may differ.

Legend:
human skin = test: UV-induced erythema (skin reddening) of human skin after topical pretreatment, chromameter; assay type: in vivo; conditions: for prevention of UV-induced erythema: 5% topical, applied about seven hours prior to UV exposure, vs vehicle-treated skin; for protection against UV-induced erythema / reduction in erythema: 5% ASA or 3.5% vit. C applied 16 hours prior to exposure; for reduction in erythema: vs untreated (vehicle-only) skin; for inhibition of UV-induced erythema: 2 MED, 20% NAC or 5% FDO pretreatment
Description: (§1) In the following examples, four F36T12 ERE-VHO UV bulbs were used to irradiate human skin. At all times, a Kodocel TA401/407 filter was mounted 4 cm in front of the bulbs to remove UVC radiation (<290 nm). Radiation intensity was monitored using an IL443 phototherapy radiometer and an SED240/UVB/W photodetector (International Light, Newbury, Mass.). Spectroradiometry was performed using an Optronic Labroatories OL 754 system. Total irradiance (290-800 nm) at about 43 cm (17 in.) from the source of four bulbs was about 1.5 mJ/cm^2·s (1.49×10^−3 W/cm^2). The radiation output from this bulb was determined by spectroradiometry to provide about 47% UVB and about 27% UVA (composed of about 9% UVA1 (340-400 nm) and about 18% UVA2 (320-340 nm)), the remainder being visible and IR radiation. An exposure of about 160 seconds under this set of four bulbs is equivalent to an exposure of one MED. Accordingly, when compared with natural sunlight which has 0.5% UVB and 6.5% UVA, it can be seen that the set of four bulbs used in these experiments provides far less UVA radiation than would exposure to the sun of an equivalent amount of UVB.
(§2) In the following examples, a “standard vechicle” of 30% PEG (polyethylene glycol) in 70% ethanol (with 0.05% BHT as preservative) was used. […] MMP activities were measured by zymography.
Chromameter: erythema (skin reddening) was determined 24 h post-exposure using a commercially available Minolta chromameter (chromameter CR200, model 94401085).

92 KDa gelatinase = test: 92 kDa gelatinase activity/level in biopsies of UV-exposed human skin (gelatin zymography); assay type: in vivo; conditions: for inhibition of UV-induced 92 KDa gelatinase activity: 5% topical, about seven hours prior to exposure; for inhibition of UV-induced increase in 92 KDa gelatinase activity: 1 MED, 20% NAC
Description: as §1, §2
Gelatin zymography (Varani et al., op. cit.) was used to assess MMP-2 (72-kD gelatinase; gelatinase A) and MMP9 (92-kD gelatinase; gelatinase B) activity. Tissue extracts were electrophoresed in an 8.5% SDS-polyacrylamide gel containing 1 mg/ml of gelatin. After electrophoresis, the SDS was removed by three sequential washes in 1% Triton X-100. The first two washes were for 20 minutes each and the last was overnight. Quantitation of hydrolysis zone width was done by laser densitometry.

type I collagenase = test: Type I collagenase activity/level in biopsies of UV-exposed human skin; assay type: in vivo; conditions: for inhibition of UV-induced collagenase activity: about 2 MED, 5% topical, about seven hours prior to exposure; for collagenase activity after UV exposure: 5% ASA applied 16 hours prior to exposure; for inhibition of UV-induced increase in collagenase activity: 20% NAC; for protection against UV-induced type I collagenase activity: 2 MED, 20% NAC or 5% FDO pretreatment
Description: as §1, §2
Matrix metalloproteinase assays. Tissue pieces were frozen in liquid nitrogen immediately after biopsy, homogenized in 20 mM Tris HCl (pH 7.6) plus 5 mM CaCl2, and centrifuged at 3000×g for 10 minutes to remove particulates. Ability to release soluble radioactive fragments from 3H-labeled fibrillar Type I collagen (described by Fisher, G. J., et al., Nature, 379, 335-339 (1996) and Hu, C-L, et al., Analytic. Biochem, 88, 638-643 (1978)) was used as a measure of collagenolytic activity. […] Subsequently, 0.2 μCi of collagen substrate (NEN-DuPont, Boston, Mass.) was incubated for 24 hours with 50 μl of tissue extract. At the end of the 24-hour incubation period, the samples were centrifuged at 12,000×g for 10 minutes to pellet the intact protein. Radioactivity remaining in the supernatant fluid was then measured and from this, the percentage of substrate hydrolzyed was determined.

[1] = UV absorbance characteristics of UVA blocker over UVA1, UVA2 and UVB wavelengths; assay type: physicochemical
Excerpt: We investigated the effect of pretreatment of skin with a known UVA blocker on both erythema and MMP activity after exposure to 2 MEDs of UV radiation. In particular, we used PARSOL® 1789 (also known as PARSOL A) brand of 4-t-butyl-4′-methoxydibenzoylmethane, which is described in U.S. Pat. No. 4,387,089 (the disclosure of which is incorporated herein by reference). (PARSOL MCX and PARSOL MOX are trademarks for 2-ethylhexyl p-methoxycinnamate, a UVB blocker commonly used in commercial sunscreen, and disclosed in U.S. Pat. No. 4,713,473, the disclosure of which is incorporated herein by reference). The absorbance characteristics of PARSOL® 1789 over the UVA1, UVA2, and UVB wavelengths is shown as the dotted line in FIG. 8A.

[2] = about 2 MED, 5% PARSOL 1789 pretreatment

Compound: COc1ccc2[nH]cc(CCNC(C)=O)c2c1 [melatonin]
- prevention of UV-induced erythema (human skin; about 2 MED): significantly reduced the erythema
- prevention of UV-induced erythema (human skin; about 2 MED, listed as Melatonin): does appear to prevent erythema
- inhibition of UV-induced 92 KDa gelatinase activity (92 KDa gelatinase; about 2 MED): neither melatonin nor vitamin E (both with pretreatment) prevented induction of MMPs; also recorded: did not function to inhibit the increased MMP activity
- inhibition of UV-induced collagenase activity (type I collagenase): neither melatonin nor vitamin E (both with pretreatment) prevented induction of MMPs; also recorded: did not function to inhibit the increased MMP activity

Compound: O=C1O[C@H]([C@@H](O)CO)C(O)=C1O [vitamin C, ascorbic acid]
- protection against UV-induced erythema (human skin; 1 MED): provided protection against erythema; also recorded: reduced the UV-induced erythema
- reduction in erythema (human skin; 1 MED): about 30%
- reduction in collagenase activity (type I collagenase; 1 MED, 3.5% vit. C applied 16 hours prior to exposure, vs untreated skin): ~25%

Compound: CC1=C(/C=C/C(C)=C/C=C/C(C)=C/CO)C(C)(C)CCC1 [retinol]
- prevention of UV-induced elevation in type I collagenase activity (type I collagenase; suberythemal 0.5 MED, 0.1% retinoic acid or 1% retinol pretreatment): about as effective as retinoic acid

Compound: CC(=O)Oc1ccccc1C(=O)O [ASA, acetyl salicylic acid]
- protection against UV-induced erythema (human skin; 1 MED): provided protection against erythema
- protection against UV-induced erythema (human skin; 1 MED, listed as aspirin): reduced the UV-induced erythema
- reduction in erythema (human skin; 1 MED): about 30%
- collagenase activity after UV exposure (type I collagenase; 1 MED, vs untreated skin): not effective at preventing elevated collagenase activity
- collagenase activity after UV exposure (type I collagenase; 1 MED, vs untreated skin, listed as aspirin): greater collagenase activity than untreated skin

Compound: CC(=O)N[C@@H](CS)C(=O)O [NAC, N-acetyl cysteine]
- anti-redness effect on UV-exposed skin (human skin; 1 MED, 20% NAC, four or seven hours prior to exposure): no anti-redness effect
- inhibition of UV-induced erythema (human skin): no effect against erythema
- inhibition of UV-induced increase in 92 KDa gelatinase activity (92 KDa gelatinase; four hour pretreatment): ineffective
- inhibition of UV-induced increase in 92 KDa gelatinase activity (92 KDa gelatinase; seven hour pretreatment): provided an inhibitory effect
- inhibition of UV-induced increase in collagenase activity (type I collagenase; 1 MED, four hour pretreatment): ineffective
- inhibition of UV-induced increase in collagenase activity (type I collagenase; 1 MED, seven hour pretreatment): provided an inhibitory effect
- protection against UV-induced type I collagenase activity (type I collagenase): effective at preventing increased MMP activity; also recorded: significant protection against collagenase activity

Compound: O/N=C(/C(=N/O)c1ccco1)c1ccco1 [FDO, 2-furildioxime]
- inhibition of UV-induced erythema (human skin): effective at preventing erythema; also recorded: completely inhibited erythema
- protection against UV-induced type I collagenase activity (type I collagenase): some protection against MMP induction

Compound: COc1ccc(C(=O)CC(=O)c2ccc(C(C)(C)C)cc2)cc1 [PARSOL® 1789, 4-t-butyl-4′-methoxydibenzoylmethane]
- protection from UV-induced erythema (sunburn) (human skin; [2]): does provide some protection
- gelatinase activity vs UV-exposed vehicle-treated skin (92 KDa gelatinase; [2]): significantly reduced
- gelatinase activity vs vehicle-treated unexposed skin (92 KDa gelatinase; [2]): not significantly different from vehicle-treated unexposed skin
- blocking of UVA1 radiation (absorbance) ([1]; UVA1 wavelengths): somewhat effective at blocking UVA1 radiation
- blocking of UVA2 radiation (absorbance) ([1]; UVA2 wavelengths): especially useful at blocking UVA2 radiation

Compound: vitamin E
- prevention of UV-induced erythema (human skin; about 2 MED): significantly reduced the erythema
- prevention of UV-induced erythema (human skin; about 2 MED, listed as Vitamin E): slightly worse but still very effective at preventing erythema
- inhibition of UV-induced 92 KDa gelatinase activity (92 KDa gelatinase; about 2 MED): neither melatonin nor vitamin E (both with pretreatment) prevented induction of MMPs; also recorded: did not function to inhibit the increased MMP activity
- inhibition of UV-induced collagenase activity (type I collagenase): neither melatonin nor vitamin E (both with pretreatment) prevented induction of MMPs; also recorded: did not function to inhibit the increased MMP activity
